{"source": "patent US20090111836A1", "about": "“Angular Pyranocoumarins, Process for Preparation and Uses Thereof” (CITY UNIVERSITY OF HONG KONG, priority 2007, published 2009)", "assay_type_in_all_cases": "cell-based, human", "key": {"P-gp [1]": {"tested_on": "P-gp", "test": "Immunoblotting analysis of P-gp expression, K562-DR", "conditions": "4 μM, 72 hours", "procedure": "(§1) Immunoblotting analysis of P-gp expression: cells were treated with 4 μM of cis-DMDCK, 4 μM of cis-DMDBK, 4 μM of trans-DMDCK, or 4 μM of trans-DMDBK for 72 hours. Treated cells were collected and mixed well in ice-cold lysis buffer (50 mM Tris pH7.4, 100 mM NaCl, 2 mM EDTA, 1% sodium deoxycholate, 0.1% SDS, 1% triton X-100, 2 mM PMSF, 1% aprotinin) for 30 minutes and then centrifuged to get the total protein. Protein concentration was determined using Bradford assay. In this experiment, 50 μg total protein was separated by 8% SDS-PAGE and electro-transferred to nitrocellulose membranes. The membrane was blocked by 5% skim milk/0.1% Tween-20/TBS (10 mM Tris pH7.5, 100 mM NaCl), and then incubated with anti-P-pg antibody for 1 hour, followed by horseradish-peroxidase-conjugated secondary antibody for another 1 hour. Protein bands were detected by the ECL method."}, "HepG2-DR cells [2]": {"tested_on": "HepG2-DR cells", "test": "SRB growth inhibition assay, HepG2-DR", "conditions": "IC50 HepG2-DR / IC50 HepG2", "procedure": "K562, K562-DR, HepG2, HepG2-DR were cultured in RPMI-1640 medium containing 10% fetal bovine serum and 100 U/mL, antibiotics. […] Drug test: […] New calorimetric cytotoxicity assay for anticancer-drug screening. […] Mosmann T. Rapid colorimetric assay for cellular growth and survival: application to proliferation and cytotoxicity assays. […] Gerlier D, Thomasset N. […] Each growth inhibition experiment must be repeated three times and results are expressed as mean±standard deviation (SD). Solvents and media were included as blank control. In SRB assay, cells are inoculated at 5000 cells/well in a 96-well microplate and incubated overnight to let cells adhere. Drug treatment lasts for 72 hours and cells are fixed for 1 hour at 4° C. with 50 μl ice-cold 15% trichloroacetic acid and washed with triple-distilled water 5 times. […] The protein-bound dye is dissolved in 100 μl per well of 10 mM Tris base (pH 10.5). The color intensity of SRB, which positively correlate to cell number in preliminary experiments, is estimated at OD 515 nm."}, "KB V1 cells": {"tested_on": "KB V1 cells", "test": "SRB growth inhibition assay, KB V1", "conditions": "IC50 KB V1 / IC50 KB-3-1"}, "P-gp [3]": {"tested_on": "P-gp", "test": "Immunoblotting analysis of P-gp expression, KB V1", "conditions": "KB V1, 4 μM, 72 hours", "procedure": "as §1"}, "K562-DR cells": {"tested_on": "K562-DR cells", "test": "Reversal of multidrug resistance (fold decrease of anticancer drug IC50), K562-DR", "conditions": "4 μM test compound", "procedure": "Cells and cell culture: cell lines used in the experiments are human hepatoma cell line (HepG2), human leukemia cell line (K562), human epidermoid carcinoma cell line (KB-3-1) and their multidrug resistant sublines HepG2-DR, K562-DR. and KB V1. The culture conditions for all cells are following: at 37° C. and 5% CO2), KB-3-1 and KBV1 were cultured in MEM medium containing 10% fetal bovine serum and 100 U/mL antibiotics; K562, K562-DR, HepG2, HepG2-DR were cultured in RPMI-1640 medium containing 10% fetal bovine serum and 100 U/mL, antibiotics. For maintaining the phenotypic characteristics of multidrug resistance, 1.2 μM and 0.1 μM doxorubicin were respectively added into the mediums of HepG2-DR and K562-DR; 200 ng/mL vinblastine was added into the medium of KBV1. Drug resistant cells were grown in drug free medium for at least 7 days before test.\nEach growth inhibition experiment must be repeated three times and results are expressed as mean±standard deviation (SD). Solvents and media were included as blank control.\nIn MTT assay, cells are inoculated at 5000 cells/well and are incubated overnight. Drug treatment lasts for 68 h. MTT (5 mg/ml in PBS) is added to each well (1:10 dilution). After incubation for 4 hour at 37° C., 5% CO2, 100 μl of stop solution (10% SDS-50% isobutanol-0.01N HCl) is added to each well to stop the reaction. Viable cell number is estimated by correlating to OD at 570 nm.\n1. Materials and methods: the same with I.\nTo evaluate the multidrug resistance reversing ability of (±)-Praeruptorin A derivatives, IC50 values of anticancer drugs in the presence and absence of cis-DMDCK, cis-DMDBK, trans-DMDCK, or trans-DMDBK at certain concentration were determined in HepG2-DR, K562-DR and KB V1 cells. The fold decrease of IC50 value of an anticancer drug in certain cell line achieved by a test compound is calculated (fold decrease=IC50 of an anti-tumor drug alone/IC50 of the anti-tumor drug in combination with the test compound) and is used for evaluating the ability of the test compound to reduce drug resistance. The larger the fold decrease value is, the stronger its ability to reverse drug resistance is. The results were average values of three repetitive tests. Verapamil (P-glycoprotein modulator) is the positive control."}, "HepG2-DR cells [4]": {"tested_on": "HepG2-DR cells", "test": "Cell cycle distribution by flow cytometry (doxorubicin-induced G2/M arrest), HepG2-DR", "conditions": "HepG2-DR; for Cell cycle distribution, G0/G1 / Cell cycle distribution, G2/M / Cell cycle distribution, S / Cell cycle distribution, SubG1: 48 h", "procedure": "1.2 Instruments: FACSCAN flow cytometry (Becton Dickinson Immunocytometry Systems, San Jose, Calif.), the obtained data were analyzed using the software of Macintosh CellQuest.\n1.3 Cell lines: HepG2, HepG2-DR.\n1.4 Drug treatment: HepG2 and HepG2-DR cells were respectively treated with each of cis-DMDCK, cis-DMDBK, trans-DMDCK, trans-DMDBK and doxorubicin for 48 hours, or treated respectively with the combination of doxorubicin and one of cis-DMDCK, cis-DMDBK, trans-DMDCK, trans-DMDBK for 48 hours.\n1.5 Treatment and detection of sample cells: after washed twice by ice-cold PBS, the cells were fixed with 70% ethanol at −20° C. overnight. The fixed cells were washed by PBS once and resuspended in 1 mL of PBS containing 100 μg/mL RNAase A and incubated at 37° C. for 30 minutes. Finally, propidium iodide solution (final concentration is 40 μg/mL,) was added to bind with DNA and incubated at room temperature for 5-10 minutes. Cells were analyzed by FACSCAN flow cytometry immediately."}, "[5]": {"conditions": "1 μM doxorubicin + 1 μM test compound"}, "[6]": {"conditions": "1 μM doxorubicin + 2 μM test compound"}, "[7]": {"conditions": "1 μM doxorubicin + 4 μM test compound"}}, "note": "Entries after “also recorded” stand apart in the source; their conditions may differ."}
{"smiles": "COc1ccc(/C=C/C(=O)O[C@@H]2[C@@H](OC(=O)/C=C/c3ccc(OC)c(OC)c3)c3c(ccc4ccc(=O)oc34)OC2(C)C)cc1OC", "note": "(racemic) [trans-DMDCK, (±)-3′-O,4′-O-bis(3,4-dimethoxycinnamoyl)-trans-khellactone]", "values": [{"measurement": "Change in P-gp (MDR1) expression level", "setting": "P-gp [1]", "result": "no detectable alteration; also recorded: not observed"}, {"measurement": "Resistant ratio", "setting": "HepG2-DR cells [2]", "result": 1.36}, {"measurement": "Resistant ratio", "setting": "KB V1 cells", "result": 0.47}, {"measurement": "Change in P-gp (MDR1) expression level", "setting": "P-gp [3]", "result": "no detectable alteration; also recorded: not observed"}, {"measurement": "Reversing parameter: fold decrease of IC50, verapamil", "setting": "K562-DR cells", "result": "27.8 ± 8.7", "unit": "fold"}, {"measurement": "Reversing parameter: fold decrease of IC50 of Doxorubicin", "setting": "K562-DR cells", "result": "16.1 ± 9.6", "unit": "fold"}, {"measurement": "Reversing parameter: fold decrease of IC50 of Puromycin", "setting": "K562-DR cells", "result": "31.1 ± 16.7", "unit": "fold"}, {"measurement": "Reversing parameter: fold decrease of IC50 of Vinblastine", "setting": "K562-DR cells", "result": "31.6 ± 5.1", "unit": "fold"}, {"measurement": "Cell cycle distribution, G0/G1", "setting": "HepG2-DR cells [4]; [5]", "result": "34.29 ± 0.21", "unit": "%"}, {"measurement": "Cell cycle distribution, G2/M", "setting": "HepG2-DR cells [4]; [5]", "result": "48.46 ± 2.52", "unit": "%"}, {"measurement": "Cell cycle distribution, S", "setting": "HepG2-DR cells [4]; [5]", "result": "8.80 ± 3.64", "unit": "%"}, {"measurement": "Cell cycle distribution, SubG1", "setting": "HepG2-DR cells [4]; [5]", "result": "3.94 ± 0.77", "unit": "%"}, {"measurement": "Cell cycle distribution, G0/G1", "setting": "HepG2-DR cells [4]; [6]", "result": "21.21 ± 1.48", "unit": "%"}, {"measurement": "Cell cycle distribution, G2/M", "setting": "HepG2-DR cells [4]; [6]", "result": "64.06 ± 3.56", "unit": "%"}, {"measurement": "Cell cycle distribution, S", "setting": "HepG2-DR cells [4]; [6]", "result": "5.79 ± 4.05", "unit": "%"}, {"measurement": "Cell cycle distribution, SubG1", "setting": "HepG2-DR cells [4]; [6]", "result": "6.55 ± 0.12", "unit": "%"}, {"measurement": "Cell cycle distribution, G0/G1", "setting": "HepG2-DR cells [4]; [7]", "result": "6.03 ± 0.91", "unit": "%"}, {"measurement": "Cell cycle distribution, G2/M", "setting": "HepG2-DR cells [4]; [7]", "result": "79.52 ± 0.66", "unit": "%"}, {"measurement": "Cell cycle distribution, S", "setting": "HepG2-DR cells [4]; [7]", "result": "5.70 ± 4.20", "unit": "%"}, {"measurement": "Cell cycle distribution, SubG1", "setting": "HepG2-DR cells [4]; [7]", "result": "4.29 ± 1.99", "unit": "%"}, {"measurement": "Effect on cell cycle by itself", "setting": "HepG2-DR cells [4]; 4 μM alone", "result": "no effect"}, {"measurement": "Cell cycle distribution, G0/G1", "setting": "HepG2-DR cells [4]; 4 μM alone", "result": "47.46 ± 0.55", "unit": "%"}, {"measurement": "Cell cycle distribution, G2/M", "setting": "HepG2-DR cells [4]; 4 μM alone", "result": "33.42 ± 1.98", "unit": "%"}, {"measurement": "Cell cycle distribution, S", "setting": "HepG2-DR cells [4]; 4 μM alone", "result": "7.97 ± 1.05", "unit": "%"}, {"measurement": "Cell cycle distribution, SubG1", "setting": "HepG2-DR cells [4]; 4 μM alone", "result": "2.07 ± 0.06", "unit": "%"}, {"measurement": "Concentration of test compound that reduced the effective doxorubicin concentration (G2/M arrest) from 50 to 1 μM", "setting": "HepG2-DR cells [4]; combination with doxorubicin", "result": 4, "unit": "µM"}]}
